Assay results published in patent publication US10034861B2 (priority 2016, dated 2018).
Where two headings read alike, the source gives them in different places.

Assays:
Format in all cases: biochemical
PDE1B = PDE1B (Homo sapiens (Human), UniProt Q01064); experiment: PDE1 inhibition assay (PDE1B); conditions: 15 nM tritium labelled cAMP, 1 hr at room temperature, SPA beads
Excerpt: (§1) Table 1 lists the IC50 value for inhibition of PDE1 by the compounds of the invention. […] PDE1 assays are described in the Experimental Section.

PDE1A = PDE1A (Homo sapiens (Human), UniProt P54750); experiment: biochemical; conditions: 15 nM tritium labelled cAMP, 1 hr at room temperature, SPA beads
Chain of PDE1A (P54750 whole entry): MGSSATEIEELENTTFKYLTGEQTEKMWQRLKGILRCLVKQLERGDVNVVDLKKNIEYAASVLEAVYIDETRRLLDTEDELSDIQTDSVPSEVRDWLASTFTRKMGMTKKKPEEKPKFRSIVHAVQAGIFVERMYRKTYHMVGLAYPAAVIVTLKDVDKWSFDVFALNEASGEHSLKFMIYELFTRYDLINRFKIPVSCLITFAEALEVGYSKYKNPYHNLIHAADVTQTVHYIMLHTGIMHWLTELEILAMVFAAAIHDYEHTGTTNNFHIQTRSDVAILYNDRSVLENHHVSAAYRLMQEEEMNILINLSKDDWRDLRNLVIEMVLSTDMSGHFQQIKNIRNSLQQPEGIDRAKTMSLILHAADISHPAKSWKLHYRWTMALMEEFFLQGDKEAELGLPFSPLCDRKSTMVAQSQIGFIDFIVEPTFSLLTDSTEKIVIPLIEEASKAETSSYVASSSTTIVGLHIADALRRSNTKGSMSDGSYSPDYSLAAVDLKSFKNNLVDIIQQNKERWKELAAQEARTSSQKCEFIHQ
Excerpt: as §1

PDE1C = PDE1C (Homo sapiens (Human), UniProt Q14123); experiment: biochemical
Chain of PDE1C (Q14123 whole entry): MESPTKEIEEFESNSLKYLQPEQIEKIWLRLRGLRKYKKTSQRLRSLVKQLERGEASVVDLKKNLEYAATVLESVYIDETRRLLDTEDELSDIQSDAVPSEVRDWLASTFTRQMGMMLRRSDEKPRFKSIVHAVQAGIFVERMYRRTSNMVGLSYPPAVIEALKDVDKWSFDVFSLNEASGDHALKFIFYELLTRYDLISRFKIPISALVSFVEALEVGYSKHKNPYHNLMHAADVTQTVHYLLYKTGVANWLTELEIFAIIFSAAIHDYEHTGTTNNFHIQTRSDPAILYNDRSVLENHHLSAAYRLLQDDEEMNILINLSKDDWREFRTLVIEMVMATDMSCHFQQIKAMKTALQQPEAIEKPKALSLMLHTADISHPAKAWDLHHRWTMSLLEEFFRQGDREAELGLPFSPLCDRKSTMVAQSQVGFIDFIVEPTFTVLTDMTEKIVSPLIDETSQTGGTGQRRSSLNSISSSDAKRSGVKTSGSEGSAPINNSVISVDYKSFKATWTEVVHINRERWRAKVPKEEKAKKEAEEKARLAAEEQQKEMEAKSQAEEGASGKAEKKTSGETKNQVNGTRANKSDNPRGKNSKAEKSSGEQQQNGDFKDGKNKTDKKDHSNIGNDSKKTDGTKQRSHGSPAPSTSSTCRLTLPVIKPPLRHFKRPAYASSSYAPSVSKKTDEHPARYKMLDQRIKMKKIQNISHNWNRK
Excerpt: as §1

[1] = 15 nM tritium labelled cAMP, 1 hr at room temperature, SPA beads

Chain of PDE1B (Q01064 whole entry): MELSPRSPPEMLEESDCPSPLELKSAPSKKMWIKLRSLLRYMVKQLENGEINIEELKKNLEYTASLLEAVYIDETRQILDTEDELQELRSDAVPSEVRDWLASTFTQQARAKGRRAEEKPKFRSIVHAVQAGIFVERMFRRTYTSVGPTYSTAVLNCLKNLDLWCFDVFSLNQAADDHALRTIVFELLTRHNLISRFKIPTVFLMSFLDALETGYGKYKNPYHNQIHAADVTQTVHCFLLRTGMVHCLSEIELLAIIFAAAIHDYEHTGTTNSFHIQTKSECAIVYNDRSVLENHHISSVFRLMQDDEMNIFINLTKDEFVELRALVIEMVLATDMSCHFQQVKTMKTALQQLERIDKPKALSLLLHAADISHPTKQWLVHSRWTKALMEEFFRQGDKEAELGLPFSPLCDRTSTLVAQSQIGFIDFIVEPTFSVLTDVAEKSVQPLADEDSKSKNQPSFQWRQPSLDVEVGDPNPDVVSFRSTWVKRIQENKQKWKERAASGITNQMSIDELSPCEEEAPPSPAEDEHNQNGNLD

| SMILES | IC50 (PDE1B; read-out: PDE1B, IC50) | IC50 (PDE1A) | IC50 (PDE1C; [1]) | IC50 (PDE1B; PDE1B, IC50 (nM)) | IC50 (PDE1C) |
| --- | --- | --- | --- | --- | --- |
| CCOc1ncccc1-c1cc(NCc2cc(OC)ccn2)c2c(n1)c(C)nn2C(C)C [Example 81, 5-(2-ethoxy-3-pyridyl)-1-isopropyl-N-[(4-methoxy-2-pyridyl)methyl]-3-methyl-pyrazolo[4,3-b]pyridin-7-amine] | 0.26 nM | 1 nM | 4.7 nM | – | – |
| COc1ncccc1-c1cc(NCc2cnn(C)c2)c2c(n1)c(C)nn2C(C)C [Example 62, 1-isopropyl-5-(2-methoxy-3-pyridyl)-3-methyl-N-[(1-methylpyrazol-4-yl)methyl]pyrazolo[4,3-b]pyridin-7-amine] | 2.4 nM | 16 nM | 21 nM | – | – |
| CCOc1ncccc1-c1cc(NCc2cncnc2OC)c2c(n1)c(C)nn2C(C)C [Example 190, 5-(2-ethoxy-3-pyridyl)-1-isopropyl-N-[(4-methoxypyrimidin-5-yl)methyl]-3-methyl-pyrazolo[4,3-b]pyridin-7-amine] | 7.9 nM | 74 nM | 94 nM | – | – |
| CCOc1ncccc1-c1cc(NCc2cccnc2)c2c(n1)c(C)nn2C(C)C [Example 115, 5-(2-ethoxy-3-pyridyl)-1-isopropyl-3-methyl-N-(3-pyridylmethyl)pyrazolo[4,3-b]pyridin-7-amine] | 2 nM | 15 nM | 31 nM | – | – |
| CCCOc1ncccc1-c1cc(NCc2cn(C)cn2)c2c(n1)c(C)nn2C(C)C [Example 142, 1-isopropyl-3-methyl-N-[(1-methylimidazol-4-yl)methyl]-5-(2-propoxy-3-pyridyl)pyrazolo[4,3-b]pyridin-7-amine] | 0.1 nM | 0.26 nM | 0.8 nM | – | – |
| CCOc1ncccc1-c1cc(NCc2ccc(C)s2)c2c(n1)c(C)nn2C(C)C [Example 36, 5-(2-ethoxy-3-pyridyl)-1-isopropyl-3-methyl-N-[(5-methyl-2-thienyl)methyl]pyrazolo[4,3-b]pyridin-7-amine] | 5.2 nM | 24 nM | 41 nM | – | – |
| CCOc1ncccc1-c1cc(NCc2cnc(OC)cn2)c2c(n1)c(C)nn2C(C)C [Example 114, 5-(2-ethoxy-3-pyridyl)-1-isopropyl-N-[(5-methoxypyrazin-2-yl)methyl]-3-methyl-pyrazolo[4,3-b]pyridin-7-amine] | 3 nM | 24 nM | 46 nM | – | – |
| CCOc1ncccc1-c1cc(NCc2noc(C)n2)c2c(n1)c(C)nn2C(C)C [Example 52, 5-(2-ethoxy-3-pyridyl)-1-isopropyl-3-methyl-N-[(5-methyl-1,2,4-oxadiazol-3-yl)methyl]pyrazolo[4,3-b]pyridin-7-amine] | 0.17 nM | 1.9 nM | 4.4 nM | – | – |
| CCCOc1ncccc1-c1cc(NCc2ncn(C)n2)c2c(n1)c(C)nn2C(C)C [Example 145, 1-isopropyl-3-methyl-N-[(1-methyl-1,2,4-triazol-3-yl)methyl]-5-(2-propoxy-3-pyridyl)pyrazolo[4,3-b]pyridin-7-amine] | 0.095 nM | 0.41 nM | 1.2 nM | – | – |
| CCOc1ncccc1-c1cc(NCc2ccn(C)c(=O)c2)c2c(n1)c(C)nn2C(C)C [Example 78, 4-[[[5-(2-ethoxy-3-pyridyl)-1-isopropyl-3-methyl-pyrazolo[4,3-b]pyridin-7-yl]amino]methyl]-1-methyl-pyridin-2-one] | 3.2 nM | 27 nM | 44 nM | – | – |
| Cc1nn(C(C)C)c2c(NCc3cc[nH]n3)cc(-c3ccc[nH]c3=O)nc12 [Example 187, 3-[1-isopropyl-3-methyl-7-(1H-pyrazol-3-ylmethylamino)pyrazolo[4,3-b]pyridin-5-yl]-1H-pyridin-2-one] | 18 nM | 140 nM | 250 nM | – | – |
| CCOc1ncccc1-c1cc(CCc2ncn(C)n2)c2c(n1)c(C)nn2C(C)C [Example 160, 5-(2-ethoxy-3-pyridyl)-1-isopropyl-3-methyl-7-[2-(1-methyl-1,2,4-triazol-3-yl)ethyl]pyrazolo[4,3-b]pyridine] | 3.9 nM | 23 nM | 56 nM | – | – |
| Cc1nn(C)cc1-c1cc(NCc2cnn(C)c2)c2c(n1)c(C)nn2C(C)C [Example 61, 5-(1,3-dimethylpyrazol-4-yl)-1-isopropyl-3-methyl-N-[(1-methylpyrazol-4-yl)methyl]pyrazolo[4,3-b]pyridin-7-amine] | 120 nM | 550 nM | 680 nM | – | – |
| CCOc1ncccc1-c1cc(NCc2cccc(C)n2)c2c(n1)c(C)nn2C(C)C [Example 101, 5-(2-ethoxy-3-pyridyl)-1-isopropyl-3-methyl-N-[(6-methyl-2-pyridyl)methyl]pyrazolo[4,3-b]pyridin-7-amine] | 0.9 nM | 20 nM | 43 nM | – | – |
| CCOc1ncccc1-c1cc(NCc2csc(C)n2)c2c(n1)c(C)nn2C1COC1 [Example 113, 5-(2-ethoxy-3-pyridyl)-3-methyl-N-[(2-methylthiazol-4-yl)methyl]-1-(oxetan-3-yl)pyrazolo[4,3-b]pyridin-7-amine] | 5.7 nM | 110 nM | 130 nM | – | – |
| CCOc1ncccc1-c1cc(CCc2cncc(OC)c2)c2c(n1)c(C)nn2C(C)C [Example 159, 5-(2-ethoxy-3-pyridyl)-1-isopropyl-7-[2-(5-methoxy-3-pyridyl)ethyl]-3-methyl-pyrazolo[4,3-b]pyridine] | 70 nM | 270 nM | 1600 nM | – | – |
| CCOc1ncccc1-c1cc(NCc2nc(C)no2)c2c(n1)c(C)nn2C(C)C [Example 30, 5-(2-ethoxy-3-pyridyl)-1-isopropyl-3-methyl-N-[(3-methyl-1,2,4-oxadiazol-5-yl)methyl]pyrazolo[4,3-b]pyridin-7-amine] | 1.3 nM | 15 nM | 31 nM | – | – |
| CCOc1ncccc1-c1cc(NCc2cnn(C)c2)c2c(cnn2C(C)C)n1 [Example 25, 5-(2-ethoxy-3-pyridyl)-1-isopropyl-N-[(1-methylpyrazol-4-yl)methyl]pyrazolo[4,3-b]pyridin-7-amine] | 4.6 nM | 56 nM | 150 nM | – | – |
| COc1ncccc1CNc1cc(-c2ccc[nH]c2=O)nc2c(C)nn(C(C)C)c12 [Example 171, 3-[1-isopropyl-7-[(2-methoxy-3-pyridyl)methylamino]-3-methyl-pyrazolo[4,3-b]pyridin-5-yl]-1H-pyridin-2-one] | 47 nM | 290 nM | 420 nM | – | – |
| CCOc1ncccc1-c1cc(NCc2ccccc2C(F)(F)F)c2c(n1)c(C)nn2C(C)C [Example 90, 5-(2-ethoxy-3-pyridyl)-1-isopropyl-3-methyl-N-[[2-(trifluoromethyl)phenyl]methyl]pyrazolo[4,3-b]pyridin-7-amine] | 12 nM | 270 nM | 640 nM | – | – |
| CCOc1ncccc1-c1cc(CNc2ncn(C)n2)c2c(n1)c(C)nn2C(C)C [Example 158, N-[[5-(2-ethoxy-3-pyridyl)-1-isopropyl-3-methyl-pyrazolo[4,3-b]pyridin-7-yl]methyl]-1-methyl-1,2,4-triazol-3-amine] | 4.9 nM | 23 nM | 50 nM | – | – |
| CCOc1ncccc1-c1cc(NCc2cccnc2C(F)F)c2c(n1)c(C)nn2C(C)C [Example 178, N-[[2-(difluoromethyl)-3-pyridyl]methyl]-5-(2-ethoxy-3-pyridyl)-1-isopropyl-3-methyl-pyrazolo[4,3-b]pyridin-7-amine] | 3.2 nM | 31 nM | 63 nM | – | – |
| Cc1nn(C(C)C)c2c(NCc3cnn(C)c3)cc(-c3ccc[nH]c3=O)nc12 [Example 177, 3-[1-isopropyl-3-methyl-7-[(1-methylpyrazol-4-yl)methylamino]pyrazolo[4,3-b]pyridin-5-yl]-1H-pyridin-2-one] | 20 nM | 130 nM | 180 nM | – | – |
| Cc1nn(C(C)C)c2c(NCc3cnn(C)c3)cc(-c3ncco3)nc12 [Example 168, 1-isopropyl-3-methyl-N-[(1-methylpyrazol-4-yl)methyl]-5-oxazol-2-yl-pyrazolo[4,3-b]pyridin-7-amine] | 2.6 nM | 14 nM | 36 nM | – | – |
| COc1ccccc1-c1cc(NCc2cnn(C)c2)c2c(n1)c(C)nn2C(C)C [Example 63, 1-isopropyl-5-(2-methoxyphenyl)-3-methyl-N-[(1-methylpyrazol-4-yl)methyl]pyrazolo[4,3-b]pyridin-7-amine] | 9.4 nM | 64 nM | 20 nM | – | – |
| CCOc1ncccc1-c1cc(NCc2ccccc2F)c2c(n1)c(C)nn2C(C)C [Example 89, 5-(2-ethoxy-3-pyridyl)-N-[(2-fluorophenyl)methyl]-1-isopropyl-3-methyl-pyrazolo[4,3-b]pyridin-7-amine] | 1.5 nM | 61 nM | 93 nM | – | – |
| CCOc1ncccc1-c1cc(NCc2cccnc2OC)c2c(n1)c(C)nn2C1COC1 [Example 197, 5-(2-ethoxy-3-pyridyl)-N-[(2-methoxy-3-pyridyl)methyl]-3-methyl-1-(oxetan-3-yl)pyrazolo[4,3-b]pyridin-7-amine] | 13 nM | 190 nM | 190 nM | – | – |
| CCCOc1ncccc1-c1cc(NCc2cc[nH]n2)c2c(n1)c(C)nn2C(C)C [Example 143, 1-isopropyl-3-methyl-5-(2-propoxy-3-pyridyl)-N-(1H-pyrazol-3-ylmethyl)pyrazolo[4,3-b]pyridin-7-amine] | 0.26 nM | 3.8 nM | 9.2 nM | – | – |
| CCOc1ncccc1-c1cc(NCc2cc[nH]n2)c2c(cnn2C(C)CC)n1 (single isomer, unassigned) [Example 136, 5-(2-ethoxy-3-pyridyl)-1-[1-methylpropyl]-N-(1H-pyrazol-3-ylmethyl)pyrazolo[4,3-b]pyridin-7-amine] | – | 62 nM | – | 3.2 nM | 100 nM |
